Key:
[1] = target: T1, telomerase (Homo sapiens, UniProt O14746); test: TRAP / RTQ-TRAP telomerase activity assay in A549 cell-free lysates; format: biochemical; conditions: telomerase inhibition, mean ± SEM;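 further: telomerase activity measured in cell-free extracts of human A549 epithelial lung carcinoma cells, tested across a range of inhibitor concentrations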
T1 construct: A549 cells (human epithelial cell lung carcinoma, ATCC, Manassas, VA) were lysed in; host or cells: A549 cell lysate (CHAPS extract, 5 µg total protein)
T1 sequence (O14746 whole entry): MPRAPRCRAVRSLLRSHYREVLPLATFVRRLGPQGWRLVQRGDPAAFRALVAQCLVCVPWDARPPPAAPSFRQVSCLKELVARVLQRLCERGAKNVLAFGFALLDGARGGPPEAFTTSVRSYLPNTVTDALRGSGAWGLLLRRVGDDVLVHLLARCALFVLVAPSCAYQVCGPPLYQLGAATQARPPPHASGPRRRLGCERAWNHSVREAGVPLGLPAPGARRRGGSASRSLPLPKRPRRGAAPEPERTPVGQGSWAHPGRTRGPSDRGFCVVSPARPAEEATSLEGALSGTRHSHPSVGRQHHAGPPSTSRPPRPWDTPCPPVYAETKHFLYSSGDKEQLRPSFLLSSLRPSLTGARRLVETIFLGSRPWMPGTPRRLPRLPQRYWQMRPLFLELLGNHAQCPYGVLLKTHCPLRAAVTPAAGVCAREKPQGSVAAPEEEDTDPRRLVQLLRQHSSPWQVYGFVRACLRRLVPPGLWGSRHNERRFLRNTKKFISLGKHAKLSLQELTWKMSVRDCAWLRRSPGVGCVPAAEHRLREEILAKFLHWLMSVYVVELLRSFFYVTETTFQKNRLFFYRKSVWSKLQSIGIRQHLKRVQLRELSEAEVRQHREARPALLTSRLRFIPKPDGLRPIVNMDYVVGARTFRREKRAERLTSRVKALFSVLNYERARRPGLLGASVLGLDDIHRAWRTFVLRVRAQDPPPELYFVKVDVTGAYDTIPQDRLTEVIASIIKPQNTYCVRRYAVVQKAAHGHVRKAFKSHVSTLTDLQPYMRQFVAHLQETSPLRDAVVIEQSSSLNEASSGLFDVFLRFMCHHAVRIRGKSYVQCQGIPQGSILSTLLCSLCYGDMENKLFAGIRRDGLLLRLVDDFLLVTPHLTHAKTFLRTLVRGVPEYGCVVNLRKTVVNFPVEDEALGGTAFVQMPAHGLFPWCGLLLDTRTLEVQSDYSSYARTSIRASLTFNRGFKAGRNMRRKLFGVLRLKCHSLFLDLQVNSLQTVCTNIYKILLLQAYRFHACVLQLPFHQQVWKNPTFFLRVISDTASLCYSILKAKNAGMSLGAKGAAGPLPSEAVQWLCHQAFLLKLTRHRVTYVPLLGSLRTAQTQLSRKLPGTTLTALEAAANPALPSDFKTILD
T1 sequence (O60832 whole entry partner): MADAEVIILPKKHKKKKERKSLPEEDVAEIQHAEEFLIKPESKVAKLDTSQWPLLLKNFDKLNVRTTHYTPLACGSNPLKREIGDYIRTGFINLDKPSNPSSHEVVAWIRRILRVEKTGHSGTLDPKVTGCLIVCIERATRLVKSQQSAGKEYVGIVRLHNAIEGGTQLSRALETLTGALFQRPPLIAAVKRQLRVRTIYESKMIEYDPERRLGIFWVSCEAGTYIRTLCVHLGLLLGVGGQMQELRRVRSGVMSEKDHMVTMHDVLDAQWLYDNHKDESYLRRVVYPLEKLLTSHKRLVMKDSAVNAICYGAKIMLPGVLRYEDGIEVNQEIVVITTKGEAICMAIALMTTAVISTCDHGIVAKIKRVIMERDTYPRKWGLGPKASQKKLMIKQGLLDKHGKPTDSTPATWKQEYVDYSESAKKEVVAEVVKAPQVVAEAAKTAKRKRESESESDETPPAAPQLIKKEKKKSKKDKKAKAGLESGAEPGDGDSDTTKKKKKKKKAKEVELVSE
T1 sequence (Q9NX24 whole entry partner): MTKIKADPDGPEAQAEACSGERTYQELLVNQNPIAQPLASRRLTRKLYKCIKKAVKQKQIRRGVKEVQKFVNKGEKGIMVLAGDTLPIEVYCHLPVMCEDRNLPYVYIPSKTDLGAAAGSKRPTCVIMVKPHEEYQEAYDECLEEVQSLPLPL
T1 sequence (Q9NPE3 whole entry partner): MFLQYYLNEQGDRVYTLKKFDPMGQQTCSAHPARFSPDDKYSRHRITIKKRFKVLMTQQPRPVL
T1 sequence (Q9NY12 whole entry partner): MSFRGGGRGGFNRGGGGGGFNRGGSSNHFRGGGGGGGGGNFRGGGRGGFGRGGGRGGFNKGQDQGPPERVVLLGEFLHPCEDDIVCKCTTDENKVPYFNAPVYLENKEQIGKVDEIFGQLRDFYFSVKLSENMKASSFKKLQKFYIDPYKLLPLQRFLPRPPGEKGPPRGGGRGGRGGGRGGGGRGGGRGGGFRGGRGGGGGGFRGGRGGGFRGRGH
T1 sequence (Q9BUR4 whole entry partner): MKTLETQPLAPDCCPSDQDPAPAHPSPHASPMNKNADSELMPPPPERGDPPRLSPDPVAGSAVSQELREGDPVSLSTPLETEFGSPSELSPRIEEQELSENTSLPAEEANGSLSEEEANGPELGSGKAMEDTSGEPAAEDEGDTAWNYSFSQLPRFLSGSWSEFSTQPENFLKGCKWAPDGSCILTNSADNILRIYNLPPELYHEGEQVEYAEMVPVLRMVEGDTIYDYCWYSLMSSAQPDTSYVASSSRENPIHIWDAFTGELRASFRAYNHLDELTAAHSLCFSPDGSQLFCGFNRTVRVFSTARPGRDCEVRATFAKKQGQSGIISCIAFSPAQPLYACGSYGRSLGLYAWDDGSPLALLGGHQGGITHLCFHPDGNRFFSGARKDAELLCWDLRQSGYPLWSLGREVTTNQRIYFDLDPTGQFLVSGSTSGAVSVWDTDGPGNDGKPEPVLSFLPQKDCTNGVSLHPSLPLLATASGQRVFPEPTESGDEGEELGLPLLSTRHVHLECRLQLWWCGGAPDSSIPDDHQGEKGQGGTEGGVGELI

| SMILES | IC50 [1] | IC90 [1] | melting point |
| --- | --- | --- | --- |
| COc1ccc(/C=C(\C#N)C(=O)Nc2sc3c(c2C#N)CCC3)cc1OC [Compound 26a, (2E)-2-Cyano-N-{3-cyano-4H,5H,6H-cyclopenta[b]thiophen-2-yl}-3-(3,4-dimethoxyphenyl)prop-2-enamide] | 13.5 ± 0.6 µM | 154 µM |  |
| N#C/C(=C\c1ccc(N2CCOCC2)cc1)C(=O)Nc1sc2c(c1C#N)CCCC2 [Compound 30b, (2E)-2-Cyano-N-(3-cyano-4,5,6,7-tetrahydro-1-benzothiophen-2-yl)-3-[4-(morpholin-4-yl)phenyl]prop-2-enamide] | 5.9 ± 0.2 µM | 119 ± 4.6 µM | 246 to 248 °C |
| CN1CCN(c2ccc(/C=C(\C#N)C(=O)Nc3sc4c(c3C#N)CCC4)cc2)CC1 [Compound 31a, (2E)-2-Cyano-N-{3-cyano-4H,5H,6H-cyclopenta[b]thiophen-2-yl}-3-[4-(4-methylpiperazin-1-yl)phenyl]prop-2-enamide] | 98.5 ± 3.8 µM | 200 µM |  |
| N#C/C(=C\c1ccc(N2CCOCC2)cc1)C(=O)Nc1sc2c(c1C#N)CCC2 [Compound 30a, (2E)-2-Cyano-N-{3-cyano-4H,5H,6H-cyclopenta[b]thiophen-2-yl}-3-[4-(morpholin-4-yl)phenyl]prop-2-enamide] | 5.2 ± 0.2 µM | 112 ± 3.6 µM |  |
| COc1ccc(/C=C(\C#N)C(=O)Nc2sc3c(c2C#N)CCCC3)cc1OC [Compound 26b, (2E)-2-Cyano-N-(3-cyano-4,5,6,7-tetrahydro-1-benzothiophen-2-yl)-3-(3,4-dimethoxyphenyl)prop-2-enamide] | 53.6 ± 1.8 µM | 751 µM |  |

The next lines start with the values.

| IC50 [1] | IC90 [1] | melting point | SMILES |
| --- | --- | --- | --- |
| 5.1 ± 0.2 µM | 31.1 ± 1.1 µM |  | N#C/C(=C\c1cccc2ccccc12)C(=O)Nc1sc2c(c1C#N)CCC2 [Compound 35a, (2E)-2-Cyano-N-{3-cyano-4H,5H,6H-cyclopenta[b]thiophen-2-yl}-3-(naphthalen-1-yl)prop-2-enamide] |
| 12.5 ± 0.6 µM | 138 µM | 376 to 378 °C | N#C/C(=C\c1ccc(Cl)c(Cl)c1)C(=O)Nc1sc2c(c1C#N)CCCC2 [Compound 27b, (2E/2Z)-2-Cyano-N-(3-cyano-4,5,6,7-tetrahydro-1-benzothiophen-2-yl)-3-(3,4-dichlorophenyl)prop-2-enamide] |
| 23.5 ± 0.9 µM | 137 ± 2.6 µM | 286 to 288 °C | N#C/C(=C\c1cccc2c1OCO2)C(=O)Nc1sc2c(c1C#N)CCC2 [Compound 37a, (2E)-3-(2H-1,3-Benzodioxol-4-yl)-2-cyano-N-{3-cyano-4H,5H,6H-cyclopenta[b]thiophen-2-yl}prop-2-enamide] |
| 6.5 ± 0.3 µM | 164 µM | 329 to 331 °C | N#C/C(=C\c1ccc(Cl)c(Cl)c1)C(=O)Nc1sc2c(c1C#N)CCC2 [Compound 27a, (2E/2Z)-2-Cyano-N-{3-cyano-4H,5H,6H-cyclopenta[b]thiophen-2-yl}-3-(3,4-dichlorophenyl)prop-2-enamide] |
| 5.2 ± 0.2 µM | 34.9 ± 1.6 µM |  | N#C/C(=C\c1ccc2ccccc2c1)C(=O)Nc1sc2c(c1C#N)CCC2 [Compound 36a, (2E)-2-Cyano-N-{3-cyano-4H,5H,6H-cyclopenta[b]thiophen-2-yl}-3-(naphthalen-2-yl)prop-2-enamide] |
| 205 ± 4 µM | 643 µM |  | Cc1nn(-c2ccccc2)cc1/C=C(\C#N)C(=O)Nc1sc2c(c1C#N)CCC2 [Compound 33a, (2E)-2-Cyano-N-{3-cyano-4H,5H,6H-cyclopenta[b]thiophen-2-yl}-3-(3-methyl-1-phenyl-1H-pyrazol-4-yl)prop-2-enamide] |
| 5.3 ± 0.2 µM | 18.6 ± 0.9 µM |  | N#C/C(=C\c1cccc2ccccc12)C(=O)Nc1sc2c(c1C#N)CCCC2 [Compound 35b, (2E)-2-Cyano-N-(3-cyano-4,5,6,7-tetrahydro-1-benzothiophen-2-yl)-3-(naphthalen-1-yl)prop-2-enamide] |
